For one compound, IC50 results are on record in publication PMC2642990, “The Glycogen-Binding Domain on the AMPK β Subunit Allows the Kinase to Act as a Glycogen Sensor” (Cell Metabolism, 2009).

This assay deals with native rat liver AMPK (Rattus norvegicus, UniProt P80386). Put plainly: AMPK kinase assay (SAMS peptide), native rat liver AMPK in solution. In kind it is biochemical. The note with it: oligosaccharides; read-out: IC50 / half-maximal effect, inhibition of AMPK. The protocol: We next tested the effect of glycogen on the activity of the native AMPK complex purified from rat liver ([Hawley et al., 1996]). […] The bovine liver glycogen inhibited AMPK completely with an IC50 (concentration causing half-maximal inhibition) of 30 ± 9 mM glucose equivalents (Figure 2A).
Figure 2 Allosteric Inhibition of AMPK by Different Glycogen Preparations (A) Concentration dependence of inhibition of native rat liver AMPK by preparations of bovine and rat liver glycogen; glycogen concentrations expressed as glucose produced after total hydrolysis. Data were fitted to an IC50 equation (see Supplemental Experimental Procedures), and curves were generated using the estimated best-fit parameters. (B) Concentration dependence of inhibition of native rat liver AMPK by bovine liver glycogen in the presence and absence of 200 μM AMP; curves were generated as in (A). (C) Inhibition by bovine liver glycogen of recombinant AMPK complex (myc-α1:β1:γ1) containing full-length (1–270) or truncated β1 subunit lacking the GBD (172–270). Complexes were expressed in CCL13 cells and purified by immunoprecipitation prior to assay with or without glycogen (200 mM glucose equivalents). Data are means ± SEM (n = 3). ^∗Activity different from control without glycogen by t test (p < 0.05). (D) Inhibition by bovine liver glycogen (200 mM glucose equivalents) of purified, native rat liver AMPK (a mixture of α1β1γ1 and α2β1γ1 complexes) that had been recovered by immunoprecipitation (IP) using anti-α1, anti-α2, or a mixture of anti-α1/-α2 antibodies or assayed in solution without immunoprecipitation. Results are expressed as percentages of the activity in controls without glycogen, and data are mean ± SEM (n = 3). (E) Absorption spectra of bovine and rat liver glycogen preparations in complex with iodine. […]
Purification of Native Rat Liver, AMPK, Recombinant AMPK, and AMPK Assays AMPK was purified from rat liver as far as the gel filtration step (Hawley et al., 1996). The kinase was assayed using the SAMS peptide (Davies et al., 1989). IC50 values for inhibition were estimated by fitting data using GraphPad Prism to the equation: Activity = Residual + Maximum - (Maximum × [Inhibitor]/(IC50+[Inhibitor])) where Residual is the activity in the presence of maximal inhibition, Maximum is the maximal inhibition and [inhibitor] is the concentration of the inhibitory molecule. For recombinant AMPK, constructs encoding myc-tagged α1, β1 and γ1 subunits of AMPK were co-transfected into CCL13 cells using modifications of previous methods (Woods et al., 1996). DNA (10 µg) was dissolved in sterile water (450 µl) to which 50 μl of 2.5 M CaCl2 was added, and the solution vortexed for 1 min. […]

native rat liver AMPK, sequence (P80386 2-270): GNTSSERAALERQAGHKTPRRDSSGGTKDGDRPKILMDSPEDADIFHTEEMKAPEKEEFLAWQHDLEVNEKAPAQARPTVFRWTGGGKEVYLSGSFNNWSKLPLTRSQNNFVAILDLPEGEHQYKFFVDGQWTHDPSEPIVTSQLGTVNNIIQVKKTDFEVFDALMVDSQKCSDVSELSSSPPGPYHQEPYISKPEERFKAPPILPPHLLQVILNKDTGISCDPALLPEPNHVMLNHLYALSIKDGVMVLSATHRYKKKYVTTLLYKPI
native rat liver AMPK, sequence (P54645 whole entry partner): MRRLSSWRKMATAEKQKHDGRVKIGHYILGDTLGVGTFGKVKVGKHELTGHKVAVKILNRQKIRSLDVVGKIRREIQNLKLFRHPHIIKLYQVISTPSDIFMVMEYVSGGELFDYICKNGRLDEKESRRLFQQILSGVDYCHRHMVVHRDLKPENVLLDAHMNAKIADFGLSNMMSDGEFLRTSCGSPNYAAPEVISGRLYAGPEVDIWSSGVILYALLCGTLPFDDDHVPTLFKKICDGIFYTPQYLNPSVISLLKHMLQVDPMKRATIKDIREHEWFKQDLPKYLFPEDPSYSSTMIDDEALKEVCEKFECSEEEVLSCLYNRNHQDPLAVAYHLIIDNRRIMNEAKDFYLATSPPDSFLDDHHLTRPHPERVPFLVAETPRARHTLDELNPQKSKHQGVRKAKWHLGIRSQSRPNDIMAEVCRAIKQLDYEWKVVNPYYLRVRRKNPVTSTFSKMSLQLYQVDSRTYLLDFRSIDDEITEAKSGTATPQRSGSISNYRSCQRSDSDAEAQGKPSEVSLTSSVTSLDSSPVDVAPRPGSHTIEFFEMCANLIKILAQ
native rat liver AMPK, sequence (Q09137 whole entry partner): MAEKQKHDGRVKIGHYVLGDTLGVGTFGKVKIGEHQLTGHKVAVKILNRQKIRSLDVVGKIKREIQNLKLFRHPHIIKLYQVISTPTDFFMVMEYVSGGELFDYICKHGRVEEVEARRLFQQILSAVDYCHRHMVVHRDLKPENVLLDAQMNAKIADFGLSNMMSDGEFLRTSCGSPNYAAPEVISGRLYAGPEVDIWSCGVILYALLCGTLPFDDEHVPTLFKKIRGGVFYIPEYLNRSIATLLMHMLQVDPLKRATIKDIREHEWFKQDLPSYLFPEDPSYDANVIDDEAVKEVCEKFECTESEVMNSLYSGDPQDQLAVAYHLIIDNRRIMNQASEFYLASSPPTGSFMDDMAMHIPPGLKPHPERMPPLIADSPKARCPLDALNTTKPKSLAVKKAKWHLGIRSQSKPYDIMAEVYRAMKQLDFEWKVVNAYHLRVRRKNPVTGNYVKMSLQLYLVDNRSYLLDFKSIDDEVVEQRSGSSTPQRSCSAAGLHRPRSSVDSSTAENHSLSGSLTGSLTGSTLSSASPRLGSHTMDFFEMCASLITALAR
native rat liver AMPK, sequence (P80385 whole entry partner): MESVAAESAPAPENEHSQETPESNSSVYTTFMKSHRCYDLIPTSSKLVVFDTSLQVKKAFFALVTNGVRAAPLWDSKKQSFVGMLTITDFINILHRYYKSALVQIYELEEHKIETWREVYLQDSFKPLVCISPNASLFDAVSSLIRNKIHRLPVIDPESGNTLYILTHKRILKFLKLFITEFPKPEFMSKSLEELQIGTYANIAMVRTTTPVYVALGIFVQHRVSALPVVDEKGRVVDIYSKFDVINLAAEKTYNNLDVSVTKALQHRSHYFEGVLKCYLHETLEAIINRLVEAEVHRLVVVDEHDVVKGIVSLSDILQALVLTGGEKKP

In the case of `OC[C@H]1O[C@H](OC[C@H]2OC(O)[C@H](O)[C@@H](O)[C@@H]2O)[C@H](O)[C@@H](O)[C@@H]1O` (stereo partly shown) [isomaltose], the IC50 was 16 mM.
